# Reference: a melting point compilation (Tetko et al.; mined from patent text by program, amines drawn as free bases though some values may be those of a salt)
row,melting point [°C],Structure (SMILES)
1,140,COc1cc2c(cc1Nc1ncc(Cl)c(Nc3ccccc3S(=O)(=O)N(C)C)n1)CCN(CC(=O)N1CCN(C)CC1)CC2
2,172 to 178,Cc1ccccc1C(Oc1cc(OCc2ccc3ncoc3c2)ccc1C#N)C(=O)O (racemic)
3,228 to 230,O=c1[nH]c2sccc2c(=O)n1CCN1CCN(c2ccccc2)CC1
4,213,Cc1nc(C(C)(C)C)ccc1/C=C/C(=O)Nc1ccc2[nH]c(CO)cc2c1
5,188,COc1ccc(Cn2ccnc2S)cc1Br
6,129 to 130,COc1c(C=Cc2ccccc2)cc(C(C)(C)C)cc1C=Cc1ccccc1
7,205,Nc1cccc(-n2nnnc2S)c1
8,158 to 164,CN1C(=O)CC2(CCc3cc4ccccc4n3C2)C1=O (stereo unspecified)
9,145 to 148,CNc1cc(S(=O)(=O)c2ccccc2)cc(Br)n1
10,228 to 230,COc1cc(N2C(=O)c3ccccc3C2=O)c2nccc(C)c2c1Oc1cccc(C(F)(F)F)c1
11,250 to 253,N=C(NO)c1ccc(-c2ccc(-c3nc4cc(C(=N)NO)ccc4[nH]3)cc2)c(OCc2ccccc2)c1
12,145 to 147,COc1cc2c(c3c1OC(C)(C)C3)C(c1cccc(N3CCNS3(=O)=O)c1)=NC(C)(C)C2
13,228 to 230,c1ccc(-c2cc(NC3=NCCN3)n(-c3ccccc3)n2)cc1
14,59.5 to 60,CC(=O)c1c(N2CCCC2)nn2ccccc12
15,128 to 130,Cc1nc(Cl)c([N+](=O)[O-])c(N(c2ccccc2)c2ccccc2)n1
16,122 to 123,CCn1cc(-c2coc3ccc(-c4nnc(C)o4)cc23)cn1
17,318 to 320,Cn1nnnc1-c1cnc2ccccc2c1O
18,170 to 173,CCOC(=O)c1cn(-c2nnc(C)s2)c2cc(F)c(F)cc2c1=O
19,155 to 157,COc1cc(N2C(=O)N3CCCCC3C2O)c(F)cc1Cl (stereo unspecified)
20,242 to 246,Cn1c(=S)n(C)c(=O)n(-c2cc(O)c(Cl)cc2F)c1=O

row,melting point [°C],Structure (SMILES)
1,236 to 238,COc1cc2sc(-c3ccccn3)nc(=O)c2cc1OC
2,112,CC1(C)C=C(c2ccccn2)c2ccc(Cl)c(Cl)c2OC1
3,145 to 146,c1ccc2c(c1)C[C@H]1CSC(=Nc3csc4ncccc34)N1C2
4,174 to 175,CC(=O)N1c2ccccc2Sc2nccnc21
5,211 to 212,Cc1cccc(-c2nc(NC(=O)c3ccc(Cl)nc3)sc2-c2ccnc(NC3CCCC3)c2)c1
6,132 to 133,COC1(C)CSC2C(NC(=O)Cc3ccccc3)C(=O)N2C1C(=O)OCC(Cl)(Cl)Cl (stereo unspecified)
7,96 to 98,COc1cc(/C=C/C(=O)Nc2ccccc2C(=O)O)ccc1OC1CCCC1
8,178,CCc1ncnc(NC2CCc3cc(O)ccc3C2)c1Cl (stereo unspecified)
9,156 to 158,CCCN(c1ccncc1)n1ccc2cc(OC(=O)NCc3ccccc3)ccc21
10,89 to 91,CN[C@@H]1CN(C(=O)c2nn(C)c3ccccc23)C[C@@H]1C (relative stereo)
11,201,CCCC1=C(C#N)C(c2cccnc2)c2c[nH]nc2N1 (stereo unspecified)
12,67 to 69,CCOC(=O)C(C)C(O)(c1ccc(OC)cc1)c1ccc(OC)cc1 (stereo unspecified)
13,152 to 153,CCN1C(=O)C(=O)N(c2cc(F)ccc2C)C1=S
14,77 to 79,OCCOc1ccc(C(=S)c2ccc(-c3ccccc3)cc2)c(O)c1
15,164,CC1CSC2=CC=NC3=CC=CC(c4ccccc4)C321 (stereo unspecified)
16,281 to 284,CCOc1cc2c(O)cc(C)nc2nc1C
17,312 to 316,CC(C)c1ccc2nc3ccc(C(=O)O)cc3c(=O)n2c1
18,169 to 170,CSc1ccc(C(=O)Nc2ccccc2)cc1Nc1cccc(C(F)(F)F)c1
19,79 to 81,O=C(Oc1cc(OC(=O)c2ccc(O)c(O)c2)c2ccccc2c1)c1ccc(O)c(O)c1
20,181 to 183,Cc1cc(-c2cccc(C(F)(F)F)c2)nn2cnnc12

row,melting point [°C],Structure (SMILES)
1,272 to 273,CCc1cccc2[nH]c(C(=O)O)cc(=O)c12
2,243 to 244,COc1cc(NC(C)=O)cc(OC)c1-c1ccc(C[C@H](NC(=O)c2c(Cl)cccc2Cl)C(=O)O)cc1
3,108 to 116,COc1cc(C2CCN(C[C@H](O)CO)CC2)ccc1Nc1ncc2ccc(-c3ccccc3N(C)S(C)(=O)=O)n2n1
4,137 to 138,Cc1c(NC(=O)CC(C)(C)C)cc2c(c1C)OC(C)(C)C2c1cccs1 (stereo unspecified)
5,206 to 209,O=C(CCC1CCNCC1)c1ccc2[nH]c3ccccc3c2c1
6,146 to 148,CCC1OC(=O)Nc2ccc(-c3cccc(Cl)c3)cc21 (stereo unspecified)
7,130 to 131,O=C1c2ccccc2COc2ccc(CC(=O)N(O)C3CCCCC3)cc21
8,> 250,CCOC(=O)c1c(Cl)nc2cc(F)c(C)cc2c1CCl
9,120 to 122,O=C1c2ccccc2C(=O)N1CCS(=O)(=O)CCO
10,199 to 206,Cc1cc(-c2cccc(-c3ccc(OCC(=O)O)c4c3CCCC4)n2)c(C)[nH]1
11,204 to 208,COc1cc(-c2nc(NC(=O)c3cc4cc(C)ccc4n3CC(=O)O)sc2CCC2CCCCC2)c(OC)cc1Cl
12,68 to 72,COc1cc(N)c(Cl)cc1C(=O)NCCC1CN(Cc2ccccc2)CCO1 (stereo unspecified)
13,114 to 116,COc1ccc(-c2c([N+](=O)[O-])cnc3ccc(Cl)cc23)c(OC)c1OC
14,93 to 96,Cc1nn2c(c1C(N)=O)NCC=C2c1cc(Cl)ccc1Cl
15,136 to 138,CC(=O)OC1CSC(Oc2ccccc2-c2c(C)noc2C)C(OC(C)=O)C1OC(C)=O (stereo unspecified)
16,213 to 215,O=C(Nc1cccc(-c2ccccc2)c1)Nc1cccc2[nH]ccc12
17,235 to 240,CC(=O)Nc1ccc(-c2ncc(NC(=O)OCc3ccccc3)c(=O)n2CC(=O)NC(Cc2ccccc2)C(=O)C(F)(F)F)cc1 (stereo unspecified)
18,235 to 237,O=[N+]([O-])c1cnn2c(-c3ccco3)ccnc12
19,129 to 132,CN1CC(O)N(c2nnc(SCc3cccs3)s2)C1=O (stereo unspecified)
20,122 to 123,Nc1cc(N2CC(COCc3ccccc3)OC2=O)ccn1 (stereo unspecified)

# More lines, now with the values behind:
row,Structure (SMILES),melting point [°C]
1,Cn1ncc(C(N)=O)c1-c1ccco1,116
2,CCNC(=O)COc1cc2c(c(Cl)c1Cl)C(=O)C(C)(C(C)C)C2 (stereo unspecified),146
3,CCCCCCCCCC(=O)Nc1ccc(S(=O)(=O)Nc2nnc(CC)s2)cc1,121 to 122
4,COC(=O)CC1c2ccc(Cl)cc2NC(=O)C1[N+](=O)[O-] (stereo unspecified),135
5,CO[C@@H](C(=O)N[C@H]1CC[C@@H](OC(=O)CCc2ccccc2)CNC1=O)[C@H](O)[C@@H](O)[C@H](O)/C=C/C(C)(C)C,75 to 77
6,Nc1cccc(S(=O)(=O)NCC(F)(F)F)c1,131
7,CC(C)(C)COC(=O)C(C#N)=Cc1cc(O)c(O)c([N+](=O)[O-])c1,173 to 179
8,Cc1ccc(-c2n[nH]c(N)c2C#N)cc1,173 to 178
9,COC(=O)C(F)=CC1C(C(=O)OC(C#N)c2cccc(Oc3ccccc3)c2)C1(C)C (stereo unspecified),70
10,Cc1cc(Cl)ccc1N1CCC(=O)N(C)C1=O,120 to 127
11,O=C1COc2cc(C(O)(C(F)(F)F)C(F)(F)F)ccc2N1,224 to 225
12,NNC(=O)C(CC1CC2CCN1CC2)(c1ccccc1)c1ccccc1 (stereo unspecified),158 to 160
13,CC(=O)NS(=O)(=O)c1cncc([N+](=O)[O-])c1,176 to 178
14,CCOC(=O)C(=NO)C1=Nc2ccc(Cl)cc2C(c2ccccc2Cl)=NC1,219 to 221
15,CCC1(C)SC(=NOC(=O)N(C)C(C)=O)N=C1C (stereo unspecified),98 to 101
16,CN=C(Cc1ccccc1)N1CC2C(=O)CCC(c3ccccc3)(c3ccccc3)C2C1 (stereo unspecified),110
17,CC(C)(C)c1cc(CC(C)(C)C2OCCS2)cc(C(C)(C)C)c1O (stereo unspecified),77
18,C=CCOc1cc(C(=O)O)cc(C(=O)N(C)C)c1,93 to 95
19,O=C1N=C(N2CCOCC2)SC1=Cc1cccc(-c2cc(F)c(O)c(C34CC5CC(CC(C5)C3)C4)c2)c1,293 to 295
20,CC(C)(C)OC(=O)NC(COCc1ccccc1)C(=O)N1CCOCC1 (stereo unspecified),87 to 88
21,O=C1CCCN1[C@@H]1c2cc(C(F)(F)F)ccc2OC(CF)(CF)[C@H]1O (relative stereo),186 to 187

row,Structure (SMILES),melting point [°C]
1,CCCCCCc1nnc2n1-c1ccc(Cl)cc1C(c1ccccc1)=NC2,75 to 78
2,CC(O)C(CO)(Cc1cc(C(C)(C)C)c(O)c(C(C)(C)C)c1)Cc1cc(C(C)(C)C)c(O)c(C(C)(C)C)c1 (stereo unspecified),145 to 150
3,N=C(NO)c1ccc(-c2ccc(-c3ccc(C(=N)NO)o3)o2)cc1,205 to 206
4,Cn1nc(C#N)c(Nc2cc(Cl)c(Cl)cc2[N+](=O)[O-])n1,148 to 150
5,CCCCCCCCCCCCCCCOC(=O)c1cccnc1,35
6,N#CC(C(=O)NCc1ccccc1Cl)C(=O)c1nn(-c2ccccc2)c2c1CSc1ccccc1-2 (stereo unspecified),228 to 230
7,CCCCCCCCCCCCCCCCSCC(COS(C)(=O)=O)NC(=O)OC (stereo unspecified),82 to 83
8,OCc1ccc(CO)c(Br)c1,104
9,CSCCOc1ccc(OCC(O)CO)cc1 (stereo unspecified),59 to 61
10,CCOC(=O)[C@H](Cc1cc(Cl)c(N)c(Cl)c1)NC(=O)C(F)(F)F,124 to 125
11,CCc1ccc(CC2N=C(c3ccc(F)cc3)c3cc(Cl)ccc3NC2=O)cc1CC (stereo unspecified),88 to 90
12,O=C1NCCC[C@@H]1NS(=O)(=O)c1ccc(F)cc1F,162 to 163
13,CC(=O)OC1CCCCC1n1c(Br)nc2cc(Cl)c(Cl)cc21 (stereo unspecified),167 to 169
14,Fc1ccc([C@H]2CC[C@H](N3CCN(Cc4ccccc4)CC3)CC2)c2ccccc12,130 to 132
15,O=C(Cc1ccc(Cl)c(Cl)c1)N1CCCC2CCCC(N3CCCC3)C21 (stereo unspecified),82 to 84
16,CCCCCCCCCCCCCCCCOCC(O)CCSCCCN(C)C (stereo unspecified),30 to 32
17,CCCNC(=O)[C@H](C)C[C@H](O)[C@H](CC1CCCCC1)NC(=O)OC(C)(C)C,115 to 116
18,O=S(=O)(c1[nH]c(-c2ccc(Cl)cc2)c(S(=O)(=O)C(F)(F)F)c1Br)C(F)(F)F,115 to 135
19,O=C(O)c1ccc(OCCCCl)cn1,120 to 121
20,CCc1c(N)c(C(N)=O)nn1C[C@H]1CCCN1C,130 to 133
